# Measurements from publication PMC5608427, “Convergent evolution involving dimeric and trimeric dUTPases in pathogenicity island mobilization” (PLoS Pathogens, 2017).
# Assays:
# ϕDI Dut-Stl complex [1] = biological target: T1, ϕDI Dut-Stl complex (Staphylococcus aureus, UniProt A0A2D0TC87); test: Native-PAGE, disruption of Dut-Stl complex; assay type: binding; details: equimolar Dut and Stl; dUMP up to 1 mM
# T1 construct: His-tagged Dut and purified Stl, E. coli; 1:1 molar ratio of Dut and Stl; with SaPIbov1 master repressor Stl (Staphylococcus aureus pathogenicity island SaPIbov1)
# [2] = biological target: T2, ϕDI Dut (dimeric dUTPase) (Staphylococcus aureus, UniProt A0A2D0TC87); test: isothermal titration calorimetry; assay type: binding; details: 50 mM HEPES pH 7.5, 250 mM NaCl, 5 mM MgCl2, 25°C; single-site model; read-out: dissociation constant
# T2 construct: His-tagged, pET-28a, E. coli BL21(DE3); homodimer; eight helices, residues 7-163 in helices
# Description: isothermal titration calorimetry on ϕDI Dut (dimeric dUTPase) | used to calculate the dissociation constant of ϕDI and ϕDI^A73L Duts against dUPNPP
# [3] = biological target: T2, ϕDI Dut (dimeric dUTPase); test: X-ray crystallography, […] Å; assay type: binding; details: Mg2+; active site, two Mg2+ per nucleotide
# ϕDI Dut-Stl complex [4] = biological target: T1, ϕDI Dut-Stl complex; test: Native-PAGE, disruption of Dut-Stl complex; details: equimolar Dut and Stl (17 μM); 4°C electrophoresis; competes with Stl binding to Dut
# Description: Native-PAGE, disruption of Dut-Stl complex on ϕDI Dut-Stl complex | competing away the dimeric ϕDI Dut from binding to the SaPI Stl repressor, with an IC50
# [5] = test system: T3, ϕDII Dut (dimeric dUTPase); test: Malachite Green phosphate assay; assay type: biochemical, Staphylococcus phage phiDII; details: 3-400 μM dUTP; 25°C; free Dut, no Stl; decimal comma (11.1)
# T3 construct: His-tagged, pET-28a, E. coli BL21(DE3)
# Description: Malachite Green phosphate assay on ϕDII Dut (dimeric dUTPase)
# [6] = test system: T4, ϕ55 Dut (dimeric dUTPase); test: Malachite Green phosphate assay; assay type: biochemical, Staphylococcus phage 55; details: 3-400 μM dUTP; 25°C; free Dut, no Stl; decimal comma (13.6)
# T4 construct: His-tagged, pET-28a, E. coli BL21(DE3)
# Description: Malachite Green phosphate assay on ϕ55 Dut (dimeric dUTPase)
# [7] = test system: T5, ϕO11 Dut (dimeric dUTPase); test: Malachite Green phosphate assay; assay type: biochemical, Staphylococcus phage phiO11; details: 3-400 μM dUTP; 25°C; free Dut, no Stl; decimal comma (17.4)
# T5 construct: His-tagged, pET-28a, E. coli BL21(DE3); not the trimeric Dut of phage ϕ11
# Description: Malachite Green phosphate assay on ϕO11 Dut (dimeric dUTPase)
# [8] = test system: T6, ϕNM1 Dut (dimeric dUTPase); test: Malachite Green phosphate assay; assay type: biochemical, Staphylococcus phage phiNM1; details: 3-400 μM dUTP; 25°C; free Dut, no Stl; decimal comma (17.5)
# T6 construct: His-tagged, pET-28a, E. coli BL21(DE3)
# Description: Malachite Green phosphate assay on ϕNM1 Dut (dimeric dUTPase)
# [9] = biological target: SaPIbov1-encoded Stl repressor (Staphylococcus aureus (pathogenicity island SaPIbov1)); test: native gel or EMSA
molecule,measurement,setting,value
O=c1ccn([C@H]2C[C@H](O)[C@@H](COP(=O)(O)O)O2)c(=O)[nH]1 [dUMP],"Native-PAGE, disruption of Dut-Stl complex",ϕDI Dut-Stl complex [1],only a weak reduction in ϕDI Dut-Stl binding was observed
"O=c1ccn([C@H]2C[C@H](O)[C@@H](COP(=O)(O)NP(=O)(O)OP(=O)(O)O)O2)c(=O)[nH]1 [dUPNPP, 2-Deoxyuridine-5-[(α,β)-imido]triphosphate]",Kd,[2],4.9 µM
same,"X-ray crystallography, 2.1 Å",[3],structure of the ϕDI Dut in complex with dUPNPP
same,IC50,ϕDI Dut-Stl complex [4],13.9 µM
O=c1ccn([C@H]2C[C@H](O)[C@@H](COP(=O)(O)OP(=O)(O)OP(=O)(O)O)O2)c(=O)[nH]1 [dUTP],Km,[5],11.1 µM
same,Km,[6],13.6 µM
same,Km,[7],17.4 µM
same,Km,[8],17.5 µM
dimeric dUTPase (Dut) from S. aureus phage ϕDI (enzyme),stoichiometry N (Dut:Stl molar ratio),[9],1
dimeric dUTPase (Dut) from S. aureus phage ϕO11 (enzyme),stoichiometry N (Dut:Stl molar ratio),[9],1
